Measurements published in paper PMC8453635, “Piperidine Azasugars Bearing Lipophilic Chains: Stereoselective Synthesis and Biological Activity as Inhibitors of Glucocerebrosidase (GCase)” (The Journal of Organic Chemistry, 2021).

Molecular target: T1, α-glucosidase (Homo sapiens, UniProt P10253)
T1 construct: α-glucosidase from lymphocytes isolated from healthy donors; from tissue; host or cells: lymphocytes from healthy donors' blood, sonicated homogenate
Assay: Human lysosomal glycosidase selectivity screening (lymphocyte homogenate)
Format: biochemical
Settings: 1 mM, read-out: percentage of inhibition, α-Glu
Description: In order to avoid undesired inhibitory side effects of a potential new drug, it has to be selective for a given target. The selectivity of the newly synthesized compounds 14, 15, and 33·HCl toward GCase was then investigated, evaluating their inhibition at 1 mM concentration toward six other lysosomal glycosidases (namely, α-and β-mannosidases, α- and β-galactosidases, α-fucosidase, and α-glucosidase) in cell homogenates (leucocytes or lymphocytes) isolated from healthy donors. […] Indeed, only moderate inhibitory activity (ca. 50%) was found toward human β-galactosidase for both piperidines 14 and 15, while negligible inhibitory activity was detected in all other cases. […]
α-Mannosidase activity was measured in a flat-bottomed 96-well plate. […] The reaction was stopped by addition of sodium carbonate (200 μL; 0.5M, pH 10.7) containing Triton X -100 (0.0025 %), and the fluorescence 4 -methylumbelliferone release d by α-mannosidase activity was measured in SpectraMax M2 microplate reader ( λex=365 nm, λem=435 nm; Molecular Devices). […]
β-Mannosidase activity was measured in a flat -bottomed 96 -well plate. […] The reaction was stopped by addition of sodium carbonate (200 μL; 0.5M, pH 10.7) containing Triton X -100 (0.0025 %), and the fluorescence of 4 -methylumbelliferone released by β-mannosidase activity was meas ured in SpectraMax M2 microplate reader ( λex=365 nm, λem=435 nm; […]

Which inhibition at 1000 µM does the source give for `CCCCCCCC[C@H]1[C@@H](O)[C@H](O)[C@H](O)CN1CCCCCCCC` [compound 14, (2S,3R,4R,5R)-1,2-Dioctylpiperidine-3,4,5-triol] here?
Its inhibition at 1000 µM is 18%.
